One data set concerns the target T1, PDE2A (Homo sapiens, UniProt O00408).
T1 construct: made in house; host or cells: SF21 insect cells (baculovirus)
As to the kind of experiment: Inhibition of recombinant PDE2A (expressed in baculovirus/SF21-cells), [3H]-cAMP SPA. It counts as biochemical. The method in brief: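 Membrane fraction of baculovirus/SF21-expressed PDE2A was incubated 30 min at 37° C in Tris-HCl/MgCl2 pH 7.4 with 0.5 μM [3H]-cAMP and 1000 nM cGMP as activator. Product was detected by SPA scintillation. IC50 used a Hill-plot 2-parameter model.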

Another data set deals with T2, PDE10A (Homo sapiens, UniProt Q9Y233).
T2 construct: made in house; host or cells: SF21 insect cells (baculovirus)
As to the kind of experiment: Inhibition of recombinant PDE10A (baculovirus/SF21 system), [3H]-cAMP SPA. The data set is classed as biochemical. The following applies: recombinant PDE10A1, cytosolic; 0.1 μM [3H]-cAMP, 37° C., 30 minutes; read-out: PDE10A IC50.

T1 sequence (O00408 whole entry): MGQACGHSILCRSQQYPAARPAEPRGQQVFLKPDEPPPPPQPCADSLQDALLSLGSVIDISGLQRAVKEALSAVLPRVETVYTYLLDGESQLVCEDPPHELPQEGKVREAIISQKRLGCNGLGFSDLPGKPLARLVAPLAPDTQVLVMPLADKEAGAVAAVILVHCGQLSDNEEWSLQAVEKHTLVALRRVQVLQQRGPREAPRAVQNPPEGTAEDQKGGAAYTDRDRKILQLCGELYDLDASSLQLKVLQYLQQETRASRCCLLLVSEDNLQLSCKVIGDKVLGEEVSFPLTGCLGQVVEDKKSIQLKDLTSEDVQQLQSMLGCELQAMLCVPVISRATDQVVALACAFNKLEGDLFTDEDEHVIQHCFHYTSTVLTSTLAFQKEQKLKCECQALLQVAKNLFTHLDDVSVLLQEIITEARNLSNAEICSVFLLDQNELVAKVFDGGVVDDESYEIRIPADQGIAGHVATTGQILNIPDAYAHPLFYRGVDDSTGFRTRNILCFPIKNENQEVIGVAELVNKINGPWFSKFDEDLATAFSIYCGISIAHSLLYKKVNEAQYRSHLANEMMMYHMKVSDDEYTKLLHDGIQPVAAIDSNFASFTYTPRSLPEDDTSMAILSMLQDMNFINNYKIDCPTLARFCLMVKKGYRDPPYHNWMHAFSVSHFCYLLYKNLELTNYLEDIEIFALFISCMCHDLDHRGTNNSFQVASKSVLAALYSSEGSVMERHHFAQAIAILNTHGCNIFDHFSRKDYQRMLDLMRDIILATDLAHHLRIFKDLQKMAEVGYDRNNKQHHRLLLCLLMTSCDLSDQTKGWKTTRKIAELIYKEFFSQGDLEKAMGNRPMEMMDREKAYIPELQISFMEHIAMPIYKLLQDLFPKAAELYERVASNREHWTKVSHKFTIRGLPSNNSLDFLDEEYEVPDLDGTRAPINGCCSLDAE
T2 sequence (Q9Y233 1-779 isoform Q9Y233-1): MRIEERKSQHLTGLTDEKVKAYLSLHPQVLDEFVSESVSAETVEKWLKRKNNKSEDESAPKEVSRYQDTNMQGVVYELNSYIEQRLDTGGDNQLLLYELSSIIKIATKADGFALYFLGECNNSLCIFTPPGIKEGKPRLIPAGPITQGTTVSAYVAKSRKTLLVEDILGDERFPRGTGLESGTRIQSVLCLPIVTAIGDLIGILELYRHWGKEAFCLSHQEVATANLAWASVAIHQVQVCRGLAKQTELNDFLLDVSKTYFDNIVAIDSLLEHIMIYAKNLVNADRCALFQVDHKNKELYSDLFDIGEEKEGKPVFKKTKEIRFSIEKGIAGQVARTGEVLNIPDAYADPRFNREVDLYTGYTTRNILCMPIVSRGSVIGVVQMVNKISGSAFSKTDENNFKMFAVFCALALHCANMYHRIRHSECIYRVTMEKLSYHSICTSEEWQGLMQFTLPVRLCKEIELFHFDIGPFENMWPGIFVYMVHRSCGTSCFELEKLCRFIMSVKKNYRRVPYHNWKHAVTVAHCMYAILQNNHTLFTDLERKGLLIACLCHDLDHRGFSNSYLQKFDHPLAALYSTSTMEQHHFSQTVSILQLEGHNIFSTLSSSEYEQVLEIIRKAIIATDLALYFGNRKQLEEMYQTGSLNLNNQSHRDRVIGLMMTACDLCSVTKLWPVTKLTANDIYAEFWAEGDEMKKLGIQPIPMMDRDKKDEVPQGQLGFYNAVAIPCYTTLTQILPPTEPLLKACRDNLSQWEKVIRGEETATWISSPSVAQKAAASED

Broadly, the melting point is the temperature, or range, at which the solid turns liquid. `Cc1nc(-c2cc(Cl)ccc2Cl)n2c1nnc1ccc(-c3cc(Cl)ccc3Cl)cc12` returned a melting point of 190 to 193 °C. On the same count and under the same terms, the result for `Cc1nc(-c2cc(OC(C)C)ccc2F)n2c1nnc1ccc(-c3cc(OC(C)C)ccc3F)cc12` reads 160.5 to 162 °C.

As to `CCOc1ccc(F)c(-c2ccc3nnc4c(C)nc(-c5cc(OCC)ccc5F)n4c3c2)c1`, the melting point fell in the range of 152 to 155 °C.

In turn, `CCCCOc1ccc(F)c(-c2nc(C)c3nnc4cc(F)ccc4n23)c1` registered a melting point of 91 to 94 °C. On the same count and under the same terms, the result for `CCCOc1ccc(F)c(-c2nc(C)c3nnc4cc(F)ccc4n23)c1` reads 119 to 122 °C. On the same count and under the same terms, the result for `COc1cc2nnc3c(C)nc(-c4ccccc4Cl)n3c2cc1OC` [Example 46, 1-(2-chlorophenyl)-7,8-dimethoxy-3-methylbenzo[e]imidazo[5,1-c][1,2,4]triazine] reads 269 to 272 °C.

For `COc1cc2nnc3c(C)nc(-c4ccccc4C)n3c2cc1OC` [Example 49, 7,8-dimethoxy-3-methyl-1-o-tolylbenzo[e]imidazo[5,1-c][1,2,4]triazine], the melting point was in the range of 219 to 221 °C.

By IC50 is commonly meant the midpoint of a concentration-inhibition curve. Take `COc1cc(F)cc2c1nnc1c(C)nc(-c3c(C)noc3C)n12` [Example 115, 1-(3,5-dimethylisoxazol-4-yl)-8-fluoro-6-methoxy-3-methylimidazo[5,1-c][1,2,4]benzotriazine]: the results for the concentration for half-maximal inhibition (IC50) on PDE2A and at PDE10A were above 10000 nM and 67 nM, respectively. For `COc1cc(F)cc2c1nnc1c(C)nc(-c3c(C)nn(C)c3C)n12` [Example 116, 8-fluoro-6-methoxy-3-methyl-1-(1,3,5-trimethyl-1H-pyrazol-4-yl)imidazo[5,1-c][1,2,4]benzotriazine], the figures for the IC50 at PDE2A and at PDE10A were 1500 nM and 13.1 nM, respectively. `COc1cc(F)cc2c1nnc1c(C)nc(-c3cccc(F)c3C)n12` [Example 117, 8-fluoro-1-(3-fluoro-2-methylphenyl)-6-methoxy-3-methylimidazo[5,1-c][1,2,4]benzotriazine]: the IC50 came to 1150 nM at PDE2A and 3.55 nM on PDE10A. As to `COc1cc(F)cc2c1nnc1c(C)nc(-c3sccc3C)n12` [Example 119, 8-fluoro-6-methoxy-3-methyl-1-(3-methylthiophen-2-yl)imidazo[5,1-c][1,2,4]benzotriazine], the concentration for half-maximal inhibition (IC50) turned out to be 269 nM on PDE2A and 1.64 nM on PDE10A. The matching figures for `COc1cc(F)cc2c1nnc1c(C)nc(-c3ccc(F)nc3C)n12` [Example 120, 8-fluoro-1-(6-fluoro-2-methylpyridin-3-yl)-6-methoxy-3-methylimidazo[5,1-c][1,2,4]benzotriazine]: above 10000 nM and 53.6 nM. Take `COc1cc(F)cc2c1nnc1c(C)nc(-c3cnc(F)c(C)c3)n12` [Example 121, 8-fluoro-1-(6-fluoro-5-methylpyridin-3-yl)-6-methoxy-3-methylimidazo[5,1-c][1,2,4]benzotriazine]: the half-inhibitory concentration (IC50) is above 1000 nM on PDE2A and 133 nM on PDE10A.

For the compound `COc1cncc(-c2nc(C)c3nnc4c(OC)cc(F)cc4n23)c1` [Example 122, 8-fluoro-6-methoxy-1-(5-methoxypyridin-3-yl)-3-methylimidazo[5,1-c][1,2,4]benzotriazine], the IC50 at PDE2A was determined as 1620 nM; on PDE10A it was 39.3 nM. For `COc1cc(F)cc2c1nnc1c(C)nc(-c3cnccc3C)n12` [Example 123, 8-fluoro-6-methoxy-3-methyl-1-(4-methylpyridin-3-yl)imidazo[5,1-c][1,2,4]benzotriazine], the results for the IC50 on PDE2A and on PDE10A were 2380 nM and 25.4 nM, respectively.

As to `COc1cc(F)cc2c1nnc1c(C)nc(-c3c(C)n[nH]c3C)n12` [Example 124, 1-(3,5-dimethyl-1H-pyrazol-4-yl)-8-fluoro-6-methoxy-3-methylimidazo[5,1-c][1,2,4]benzotriazine], the 50% inhibitory concentration (IC50) at PDE2A was 1430 nM; on PDE10A, 13 nM.

Regarding `COc1cc(F)cc2c1nnc1c(C)nc(-c3cc(OC(F)(F)F)ccc3Cl)n12` [Example 125, 1-[2-chloro-5-(trifluoromethoxy)phenyl]-8-fluoro-6-methoxy-3-methylimidazo[5,1-c][1,2,4]benzotriazine], the figures for the IC50 at PDE2A and on PDE10A were 117 nM and 12.1 nM, respectively. With `COc1ccc(Cl)c(-c2nc(C)c3nnc4c(OC)cc(F)cc4n23)c1` [Example 126, 1-(2-chloro-5-methoxyphenyl)-8-fluoro-6-methoxy-3-methylimidazo[5,1-c][1,2,4]benzotriazine], the IC50 was determined as 108 nM at PDE2A and 2.45 nM on PDE10A. As for `COc1cc(F)cc2c1nnc1c(C)nc(-c3sc(C)nc3C)n12` [Example 127, 1-(2,4-dimethyl-1,3-thiazol-5-yl)-8-fluoro-6-methoxy-3-methylimidazo[5,1-c][1,2,4]benzotriazine], the IC50 came to 3420 nM on PDE2A and 11.7 nM at PDE10A. On to `COc1cc(F)cc2c1nnc1c(C)nc(-c3cc(C(N)=O)ccc3F)n12` [Example 128, 4-fluoro-3-(8-fluoro-6-methoxy-3-methylimidazo[5,1-c][1,2,4]benzotriazin-1-yl)benzamide], for which the half-inhibitory concentration (IC50) on PDE2A was determined as 654 nM; at PDE10A, 6.31 nM. The corresponding values for `COc1cc(F)cc2c1nnc1c(C)nc(-c3ccncc3)n12` [Example 129, 8-fluoro-6-methoxy-3-methyl-1-pyridin-4-ylimidazo[5,1-c][1,2,4]benzotriazine] are 4950 nM and 61.6 nM. As to `Cc1nc(-c2cc(Cl)ccc2Cl)n2c1nnc1c(Cl)cc(C(F)(F)F)cc12` [Example 133, 6-chloro-1-(2,5-dichlorophenyl)-3-methyl-8-(trifluoromethyl)imidazo[5,1-c][1,2,4]benzotriazine], the half-inhibitory concentration (IC50) at PDE2A was found to be 403 nM; on PDE10A, 9.69 nM. With `COc1cc(C(F)(F)F)cc2c1nnc1c(C)nc(-c3ccncc3C)n12` [Example 134, 6-methoxy-3-methyl-1-(3-methylpyridin-4-yl)-8-(trifluoromethyl)benzo[e]imidazo[5,1-c][1,2,4]triazine], the figures for the IC50 on PDE2A and on PDE10A were 346 nM and 1.48 nM, respectively. As to `COc1cc(C(F)(F)F)cc2c1nnc1c(C)nc(-c3ccoc3)n12` [Example 143, 1-(Furan-3-yl)-6-methoxy-3-methyl-8-(trifluoromethyl)benzo[e]imidazo[5,1-c][1,2,4]triazine], the IC50 on PDE2A is above 1000 nM; on PDE10A, 57 nM. Turning to `COc1cc(O)cc2c1nnc1c(C)nc(-c3cnccc3C)n12` [Example 149, 6-methoxy-3-methyl-1-(4-methylpyridin-3-yl)benzo[e]imidazo[5,1-c][1,2,4]triazin-8-ol], the IC50 on PDE2A is 451 nM; at PDE10A it was 22 nM. The corresponding values for `COc1cc(OC(F)F)cc2c1nnc1c(C)nc(-c3cnccc3C)n12` [Example 150, 8-(difluoromethoxy)-6-methoxy-3-methyl-1-(4-methylpyridin-3-yl)benzo[e]imidazo[5,1-c][1,2,4]triazine] are 944 nM and 7 nM.

With `COc1cc(OCc2ccccc2)cc2c1nnc1c(C)nc(-c3ccncc3C)n12` [Example 151, 8-(benzyloxy)-6-methoxy-3-methyl-1-(3-methylpyridin-4-yl)imidazo[5,1-c][1,2,4]benzotriazine], the results for the concentration for half-maximal inhibition (IC50) at PDE2A and on PDE10A were 80.6 nM and 0.7 nM, respectively.

Take `COc1cc(O)cc2c1nnc1c(C)nc(-c3ccncc3C)n12` [Example 152, 6-methoxy-3-methyl-1-(3-methylpyridin-4-yl)benzo[e]imidazo[5,1-c][1,2,4]triazin-8-ol]: the half-inhibitory concentration (IC50) came to 105 nM on PDE2A and 3.05 nM on PDE10A. For `COc1cc(OCc2ccccc2)cc2c1nnc1c(C)nc(-c3cccnc3C)n12` [Example 154, 8-(benzyloxy)-6-methoxy-3-methyl-1-(2-methylpyridin-3-yl)imidazo[5,1-c][1,2,4]benzotriazine], the IC50 was 73.9 nM on PDE2A and 0.67 nM at PDE10A.

For `COc1cc(OCc2ccccc2)cc2c1nnc1c(C)nc(-c3cnccc3C)n12` [Example 157, 8-(benzyloxy)-6-methoxy-3-methyl-1-(4-methylpyridin-3-yl)imidazo[5,1-c][1,2,4]benzotriazine], the 50% inhibitory concentration (IC50) on PDE2A worked out at 277 nM; at PDE10A, 5.32 nM.

Consider `Cc1cn(-c2ccc3nnc4c(C)nc(C5CCCCC5)n4c3c2)c(C2CCCCC2)n1` [Example 179, 1-Cyclohexyl-8-(2-cyclohexyl-4-methyl-imidazol-1-yl)-3-methyl-imidazo[5,1-c][1,2,4]benzotriazine], for which the IC50 at PDE2A was found to be 242 nM; at PDE10A it was 322 nM.

Regarding `Cc1nc(-c2cc(Cl)ccc2Cl)n2c1nnc1ccc(N3CCCCC3)cc12` [Example 180, 1-(2,5-Dichloro-phenyl)-3-methyl-8-piperidin-1-yl-imidazo[5,1-c][1,2,4]benzotriazine], the results for the IC50 on PDE2A and at PDE10A were 6.9 nM and 49.5 nM, respectively. Turning to `Cc1nc(-c2cc(Cl)ccc2Cl)n2c1nnc1ccc(N3CCOCC3)cc12` [Example 181, 1-(2,5-Dichloro-phenyl)-3-methyl-8-morpholin-4-yl-imidazo[5,1-c][1,2,4]benzotriazine], the concentration for half-maximal inhibition (IC50) is 2.3 nM at PDE2A and 24.3 nM on PDE10A. For the compound `Cc1cn(-c2ccc3nnc4c(C)nc(CC(C)C)n4c3c2)c(CC(C)C)n1` [Example 182, 1-Isobutyl-8-(2-isobutyl-4-methyl-imidazol-1-yl)-3-methyl-imidazo[5,1-c][1,2,4]benzotriazine], the concentration for half-maximal inhibition (IC50) at PDE2A was 134 nM; at PDE10A, 32.8 nM. Take `Cc1nc(-c2ccccc2Cl)n2c1nnc1ccc(N3CCCCC3)cc12` [Example 183, 1-(2-Chloro-phenyl)-3-methyl-8-piperidin-1-yl-imidazo[5,1-c][1,2,4]benzotriazine]: the IC50 on PDE2A is 7.79 nM; on PDE10A it was 12.1 nM.

Values taken from patent US20100120763A1, “IMIDAZO[5,1-C][1,2,4]BENZOTRIAZINE DERIVATIVES AS INHIBITORS OF PHOSPHODIESTERASES” (priority 2008, published 2010).
